In experiment [1] the target is T1, human GLP-1 receptor (Homo sapiens, UniProt P43220).
T1 construct: expressed in transfected cells; host or cells: membranes prepared from BHK cells (parent line BHKTS13), clone FCW467-12A
Description: GLP-1 receptor binding, competitive binding assay (125I-GLP-1, SPA) on isolated membranes.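 Also: test compounds added at a range of concentrations to membranes from cells expressing the human GLP-1 receptor, scored by displacement of labelled ligand, read with WGA SPA beads.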
Description: The purpose of this example is to test the receptor binding of the GLP-1 derivatives in vitro. The receptor binding is a measure of affinity of a derivative for the human GLP-1 receptor.
In this type of assay a labelled ligand (in this case ^125I-GLP-1) is bound to the receptor. Each derivative is added in a series of concentrations to isolated membranes containing the human GLP-1 receptor and displacement of the labelled ligand is monitored. The receptor binding is reported as the concentration at which half of the labelled ligand is displaced from the receptor, the IC50 value.
The following chemicals were used in the assay: Human serum albumin (HSA) (Sigma A1653), DMEM w/o phenol red (Gibco 11880-028), Pen/strep (Invitrogen 15140-122), G418 (Invitrogen 10131-027), 1 M Hepes (Gibco 15630), EDTA (Invitrogen 15575-038), PBS (Invitrogen 14190-094), fetal calf serum (Invitrogen 16140-071), EGTA, MgCl2 (Merck 1.05832.1000), Tween 20 (Amresco 0850C335), SPA particles (wheat germ agglutinin (WGA) SPA beads, Perkin Elmer RPNQ0001), [^125I]-GLP-1]-(7-36)NH2 (produced in-house), OptiPlate™-96 (Packard 6005290).
Buffer 1 consisted of 20 mM Na-HEPES plus 10 mM EDTA and pH was adjusted to 7.4. Buffer 2 consisted of 20 mM Na-HEPES plus 0.1 mM EDTA and pH was adjusted to 7.4. Assay buffer consisted of 50 mM HEPES supplemented with 5 mM EGTA, 5 mM MgCl2, 0.005% Tween 20 and pH was adjusted to 7.4. An 8% albumin stock consisted of HSA dissolved at 8% (w/v) in assay buffer. An 0.02% albumin stock consisted of HSA dissolved at 0.02% (w/v) in assay buffer.
The cells express the human GLP-1 receptor.
The cells were grown at 5% CO2 in DMEM, 10% fetal calf serum, 1% Pen/Strep (Penicillin/Streptomycin) and 1.0 mg/ml of the selection marker G418.
To make a membrane preparation the cells were grown to approximately 80% confluence. The cells were washed twice in phosphate-buffered saline and harvested. The cells were pelleted using a brief centrifugation and the cell pellet was kept on ice. The cell pellet was homogenised with ULTRA-THURRAX™ dispersing instrument for 20-30 seconds in a suitable amount of buffer 1 (e.g., 10 ml). The homogenate was centrifuged for 15 minutes. The pellet was re-suspended (homogenised) in 10 ml buffer 2 and centrifuged. This step was repeated once more. The resulting pellet was re-suspended in buffer 2 and the protein concentration was determined. The membranes were aliquoted and stored at minus 80° C.
For the receptor binding assay in the presence of low HSA (0.005%) 50 μl of the assay buffer was added to each well of an assay plate.
For the receptor binding assay in the presence of high HSA (2%) 50 μl of the 8% albumin stock was added to each well of an assay plate.
Cell membrane aliquots were thawed and diluted to their working concentration. Fifty μl were added to each well in the assay plate.
WGA SPA beads were suspended in assay buffer at 20 mg/ml. The suspension was diluted to 10 mg/ml in assay buffer just prior to addition to the assay plate. Fifty μl were added to each well in the assay plate.
The incubation was started by adding 25 μl of 480 pM solution of [^125I]-GLP-1]-(7-36)NH2 to each well of the assay plate. A 25 μl aliquot was reserved for measuring total counts/well.
The assay plate was incubated for 2 h at 30° C.
The assay plate was centrifuged for 10 min.
The assay plate was read in a Packard TopCount NXT instrument.
The data from the TopCount instrument were transferred to GraphPad Prism software. The software averaged the values for the replicates and performed a non-linear regression. IC50 values were calculated by the software and reported in nM.

Experiment [2] deals with T1, human GLP-1 receptor. Description: In vitro potency, CRE luciferase reporter gene assay in BHK cells expressing the human GLP-1 receptor. Type of experiment: cell-based. The note with it: whole cell reporter gene assay, 3 h incubation, no HSA, averages of at least two replicates. In a few lines:
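Stably transfected BHK cells (5×10^3/well) expressing human GLP-1R with a CRE-luciferase reporter; compounds diluted in buffer with 2% ovalbumin and 0.2% Pluronic F-68, final 1×10^−7 to 1×10^−14 M. Incubated 3 h at 37 °C, 5% CO2, then luminescence read; potency from non-linear log(agonist)–response fit, mean of ≥2 replicates.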
(In general: Reporter assays use an easily measured gene product as a stand-in for the process of interest.)

The mark [3] stands for this setting: High HSA IC50 (nM), high serum albumin (2.0% HSA final assay concentration).
The mark [4] stands for this setting: Low HSA IC50 (nM), low serum albumin (max. 0.001% final assay concentration).

Structures are written as SMILES. Where two headings read alike, the source gives them in different places. Numbered stars: 1 amine (or outer) side, 2 acyl side, 3 side chain; on linkers, the order of the positions; unused ones are H or OH. Square brackets hold non-standard residues; d marks the D form. Side chains are listed from the residue outwards. Peptide text beside a SMILES is read from it. * marks the point of attachment. X2 = O=C(O)CCCCCCCCCCCCCCCCCCC(=O)NC[C@H]1CC[C@H](C(=O)N[C@@H](CCC(=O)NCCOCCOCCN*)C(=O)O)CC1; C20 diacid = O=C(O)CCCCCCCCCCCCCCCCCCC(=O)*; γGlu = O=C(O)[C@H](CCC(=O)[*:2])N[*:1]; εLys = N[C@@H](CCCCN[*:1])C(=O)[*:2]; Trx = NC[C@H]1CC[C@H](C(=O)O)CC1; PEG4 = NCCOCCOCCOCCOCCC(=O)O; Suc = O=C(CCC(=O)[*:2])[*:1]; AEEA = NCCOCCOCC(=O)O; Aib = CC(C)(N)C(=O)O

T1 sequence (P43220 24-463): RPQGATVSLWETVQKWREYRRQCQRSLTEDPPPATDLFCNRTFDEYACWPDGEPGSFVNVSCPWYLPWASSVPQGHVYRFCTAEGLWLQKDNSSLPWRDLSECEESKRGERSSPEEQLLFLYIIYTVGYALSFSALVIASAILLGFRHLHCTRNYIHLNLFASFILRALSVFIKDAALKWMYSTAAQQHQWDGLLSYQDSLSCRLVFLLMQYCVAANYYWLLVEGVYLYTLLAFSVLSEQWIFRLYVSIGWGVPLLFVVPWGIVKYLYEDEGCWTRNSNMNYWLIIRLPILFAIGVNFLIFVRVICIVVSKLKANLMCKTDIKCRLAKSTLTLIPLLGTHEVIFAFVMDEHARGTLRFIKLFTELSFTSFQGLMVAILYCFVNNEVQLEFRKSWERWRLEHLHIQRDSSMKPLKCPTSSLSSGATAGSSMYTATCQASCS

Usually IC50 stands for the concentration that inhibits the measured activity by half. As a reminder, the EC50 is the concentration giving half of the maximal effect. A higher EC50 goes with a less potent agent. Turning to `CC[C@H](C)[C@H](NC(=O)[C@H](Cc1ccccc1)NC(=O)[C@H](CCC(=O)O)NC(=O)[C@H](CCCNC(=N)N)NC(=O)[C@H](C)NC(=O)[C@H](C)NC(=O)[C@H](CCC(N)=O)NC(=O)[C@H](CCC(=O)O)NC(=O)[C@H](CCC(=O)O)NC(=O)[C@H](CC(C)C)NC(=O)[C@H](Cc1ccc(O)cc1)NC(=O)[C@H](CO)NC(=O)[C@H](CO)NC(=O)[C@@H](NC(=O)[C@H](CC(=O)O)NC(=O)[C@H](CO)NC(=O)[C@@H](NC(=O)[C@H](Cc1ccccc1)NC(=O)[C@@H](NC(=O)CNC(=O)[C@H](CCC(=O)O)NC(=O)C(C)(C)NC(=O)[C@@H](N)Cc1c[nH]cn1)[C@@H](C)O)[C@@H](C)O)C(C)C)C(=O)N[C@@H](C)C(=O)N[C@@H](Cc1c[nH]c2ccccc12)C(=O)N[C@@H](CC(C)C)C(=O)N[C@H](C(=O)N[C@@H](CCCNC(=N)N)C(=O)NCC(=O)N[C@@H](CCCNC(=N)N)C(=O)NCC(=O)N[C@@H](CCCCNC(=O)COCCOCCNC(=O)COCCOCCNC(=O)COCCOCCNC(=O)COCCOCCNC(=O)COCCOCCNC(=O)COCCOCCNC(=O)[C@@H](N)CCCCNC(=O)[C@@H](N)CCCCNC(=O)CCCCCCCCCCCCCCCCCCC(=O)O)C(=O)NCC(=O)NCC(=O)N[C@@H](CO)C(=O)N[C@@H](CCCCNC(=O)COCCOCCNC(=O)COCCOCCNC(=O)COCCOCCNC(=O)COCCOCCNC(=O)COCCOCCNC(=O)COCCOCCNC(=O)[C@@H](N)CCCCNC(=O)[C@@H](N)CCCCNC(=O)CCCCCCCCCCCCCCCCCCC(=O)O)C(=O)O)C(C)C` [Example 28] (H-H[Aib]EGTFTSDVSSYLEEQAAREFIAWLVRGRGK([AEEA-AEEA-AEEA-AEEA-AEEA-AEEA-εLys-εLys-C20 diacid])GGSK([AEEA-AEEA-AEEA-AEEA-AEEA-AEEA-εLys-εLys-C20 diacid])-OH; N-terminus and C-terminus assumed), the half-inhibitory concentration (IC50) at human GLP-1 receptor [1] (high serum albumin (2.0% HSA final assay concentration), read-out: High HSA IC50) is 30 nM; at human GLP-1 receptor [1] (low serum albumin (max. 0.001% final assay concentration), read-out: Low HSA IC50) it was 0.05 nM. At human GLP-1 receptor [2], this compound displayed an EC50 of 0.0034 nM.
`CC[C@H](C)[C@H](NC(=O)[C@H](Cc1ccccc1)NC(=O)[C@H](CCC(=O)O)NC(=O)[C@H](CCCNC(=N)N)NC(=O)[C@H](C)NC(=O)[C@H](C)NC(=O)[C@H](CCC(N)=O)NC(=O)[C@H](CCC(=O)O)NC(=O)[C@H](CCC(=O)O)NC(=O)[C@H](CC(C)C)NC(=O)[C@H](Cc1ccc(O)cc1)NC(=O)[C@H](CO)NC(=O)[C@H](CO)NC(=O)[C@@H](NC(=O)[C@H](CC(=O)O)NC(=O)[C@H](CO)NC(=O)[C@@H](NC(=O)[C@H](Cc1ccccc1)NC(=O)[C@@H](NC(=O)CNC(=O)[C@H](CCC(=O)O)NC(=O)C(C)(C)NC(=O)[C@@H](N)Cc1c[nH]cn1)[C@@H](C)O)[C@@H](C)O)C(C)C)C(=O)N[C@@H](C)C(=O)N[C@@H](Cc1c[nH]c2ccccc12)C(=O)N[C@@H](CC(C)C)C(=O)N[C@H](C(=O)N[C@@H](CCCNC(=N)N)C(=O)NCC(=O)N[C@@H](CCCNC(=N)N)C(=O)NCC(=O)N[C@@H](CCCCNC(=O)CCC(=O)NCCOCCOCCNC(=O)CC[C@H](NC(=O)[C@H]1CC[C@H](CNC(=O)CCCCCCCCCCCCCCCCCCC(=O)O)CC1)C(=O)O)C(=O)NCC(=O)NCC(=O)N[C@@H](CO)C(=O)N[C@@H](CCCCNC(=O)CCC(=O)NCCOCCOCCNC(=O)CC[C@H](NC(=O)[C@H]1CC[C@H](CNC(=O)CCCCCCCCCCCCCCCCCCC(=O)O)CC1)C(=O)O)C(=O)O)C(C)C` [Example 23] (H-H[Aib]EGTFTSDVSSYLEEQAAREFIAWLVRGRGK([Suc-X2])GGSK([Suc-X2])-OH): the figures for the IC50 on human GLP-1 receptor [1] (setting [3]) and at human GLP-1 receptor [1] (setting [4]) were 201 nM and 1.4 nM, respectively. The compound further displayed an EC50 at human GLP-1 receptor [2] of 0.022 nM.
For `CC[C@H](C)[C@H](NC(=O)[C@H](Cc1ccccc1)NC(=O)[C@H](CCC(=O)O)NC(=O)[C@H](CCCNC(=N)N)NC(=O)[C@H](C)NC(=O)[C@H](C)NC(=O)[C@H](CCC(N)=O)NC(=O)[C@H](CCC(=O)O)NC(=O)[C@H](CCC(=O)O)NC(=O)[C@H](CC(C)C)NC(=O)[C@H](Cc1ccc(O)cc1)NC(=O)[C@H](CO)NC(=O)[C@H](CO)NC(=O)[C@@H](NC(=O)[C@H](CC(=O)O)NC(=O)[C@H](CO)NC(=O)[C@@H](NC(=O)[C@H](Cc1ccccc1)NC(=O)[C@@H](NC(=O)CNC(=O)[C@H](CCC(=O)O)NC(=O)C(C)(C)NC(=O)[C@@H](N)Cc1c[nH]cn1)[C@@H](C)O)[C@@H](C)O)C(C)C)C(=O)N[C@@H](C)C(=O)N[C@@H](Cc1c[nH]c2ccccc12)C(=O)N[C@@H](CC(C)C)C(=O)N[C@H](C(=O)N[C@@H](CCCNC(=N)N)C(=O)NCC(=O)N[C@@H](CCCNC(=N)N)C(=O)NCC(=O)N[C@@H](CCCCNC(=O)COCCOCCNC(=O)COCCOCCNC(=O)CC[C@H](NC(=O)[C@H]1CC[C@H](CNC(=O)CCCCCCCCCCCCCCCCCCC(=O)O)CC1)C(=O)O)C(=O)N[C@@H](CO)C(=O)N[C@@H](C)C(=O)N[C@@H](CCC(=O)O)C(=O)N[C@@H](CCCCNC(=O)COCCOCCNC(=O)COCCOCCNC(=O)CC[C@H](NC(=O)[C@H]1CC[C@H](CNC(=O)CCCCCCCCCCCCCCCCCCC(=O)O)CC1)C(=O)O)C(=O)O)C(C)C` [Example 13] (H-H[Aib]EGTFTSDVSSYLEEQAAREFIAWLVRGRGK([AEEA-AEEA-γGlu-Trx-C20 diacid])SAEK([AEEA-AEEA-γGlu-Trx-C20 diacid])-OH), in that order: 160 nM, 1.4 nM and 0.024 nM.
Take `CC[C@H](C)[C@H](NC(=O)[C@H](Cc1ccccc1)NC(=O)[C@H](CCC(=O)O)NC(=O)[C@H](CCCNC(=N)N)NC(=O)[C@H](C)NC(=O)[C@H](C)NC(=O)[C@H](CCC(N)=O)NC(=O)[C@H](CCC(=O)O)NC(=O)[C@H](CCC(=O)O)NC(=O)[C@H](CC(C)C)NC(=O)[C@H](Cc1ccc(O)cc1)NC(=O)[C@H](CO)NC(=O)[C@H](CO)NC(=O)[C@@H](NC(=O)[C@H](CC(=O)O)NC(=O)[C@H](CO)NC(=O)[C@@H](NC(=O)[C@H](Cc1ccccc1)NC(=O)[C@@H](NC(=O)CNC(=O)[C@H](CCC(=O)O)NC(=O)C(C)(C)NC(=O)[C@@H](N)Cc1c[nH]cn1)[C@@H](C)O)[C@@H](C)O)C(C)C)C(=O)N[C@@H](C)C(=O)N[C@@H](Cc1c[nH]c2ccccc12)C(=O)N[C@@H](CC(C)C)C(=O)N[C@H](C(=O)N[C@@H](CCCNC(=N)N)C(=O)NCC(=O)N[C@@H](CCCNC(=N)N)C(=O)NCC(=O)N[C@@H](CCCCNC(=O)CCOCCOCCOCCOCCNC(=O)CC[C@H](NC(=O)[C@H]1CC[C@H](CNC(=O)CCCCCCCCCCCCCCCCCCC(=O)O)CC1)C(=O)O)C(=O)NCC(=O)NCC(=O)N[C@@H](CO)C(=O)N[C@@H](CCCCNC(=O)CCOCCOCCOCCOCCNC(=O)CC[C@H](NC(=O)[C@H]1CC[C@H](CNC(=O)CCCCCCCCCCCCCCCCCCC(=O)O)CC1)C(=O)O)C(=O)O)C(C)C` [Example 10, N{Alpha}([Aib8,Glu22,Arg26,Arg34]-GLP-1-(7-37)-peptidyl)-N{Epsilon}3-[2-[2-[2-[2-[[(4S)-4-carboxy-4-[[4-[(19-carboxynonadecanoylamino)methyl]cyclohexanecarbonyl]amino]butanoyl]amino]ethoxy]ethoxy]ethoxy]ethoxy]propanoylLys-Gly-Gly-Ser-N{Epsilon}3-[2-[2-[2-[2-[[(4S)-4-carboxy-4-[[4-[(19-carboxynonadecanoylamino)methyl]cyclohexanecarbonyl]amino]butanoyl]amino]ethoxy]ethoxy]ethoxy]ethoxy]propanoylLys] (H-H[Aib]EGTFTSDVSSYLEEQAAREFIAWLVRGRGK([PEG4-γGlu-Trx-C20 diacid])GGSK([PEG4-γGlu-Trx-C20 diacid])-OH): the results for the IC50 at human GLP-1 receptor [1] (setting [3]) and on human GLP-1 receptor [1] (setting [4]) were 123 nM and 1.3 nM, respectively. For the same compound, the EC50 at human GLP-1 receptor [2] was 0.027 nM.
For `CC[C@H](C)[C@H](NC(=O)[C@H](Cc1ccccc1)NC(=O)[C@H](CCC(=O)O)NC(=O)[C@H](CCCNC(=N)N)NC(=O)[C@H](C)NC(=O)[C@H](C)NC(=O)[C@H](CCC(N)=O)NC(=O)[C@H](CCC(=O)O)NC(=O)[C@H](CCC(=O)O)NC(=O)[C@H](CC(C)C)NC(=O)[C@H](Cc1ccc(O)cc1)NC(=O)[C@H](CO)NC(=O)[C@H](CO)NC(=O)[C@@H](NC(=O)[C@H](CC(=O)O)NC(=O)[C@H](CO)NC(=O)[C@@H](NC(=O)[C@H](Cc1ccccc1)NC(=O)[C@@H](NC(=O)CNC(=O)[C@H](CCC(=O)O)NC(=O)C(C)(C)NC(=O)[C@@H](N)Cc1c[nH]cn1)[C@@H](C)O)[C@@H](C)O)C(C)C)C(=O)N[C@@H](C)C(=O)N[C@@H](Cc1c[nH]c2ccccc12)C(=O)N[C@@H](CC(C)C)C(=O)N[C@H](C(=O)N[C@@H](CCCNC(=N)N)C(=O)NCC(=O)N[C@@H](CCCCNC(=O)COCCOCCNC(=O)COCCOCCNC(=O)CC[C@H](NC(=O)[C@H]1CC[C@H](CNC(=O)CCCCCCCCCCCCCCCCCCC(=O)O)CC1)C(=O)O)C(=O)NCC(=O)N[C@@H](C)C(=O)N[C@@H](CCC(=O)O)C(=O)N[C@@H](CO)C(=O)N1CCC[C@H]1C(=O)N[C@@H](CCCCNC(=O)COCCOCCNC(=O)COCCOCCNC(=O)CC[C@H](NC(=O)[C@H]1CC[C@H](CNC(=O)CCCCCCCCCCCCCCCCCCC(=O)O)CC1)C(=O)O)C(=O)O)C(C)C` [Example 14] (H-H[Aib]EGTFTSDVSSYLEEQAAREFIAWLVRGK([AEEA-AEEA-γGlu-Trx-C20 diacid])GAESPK([AEEA-AEEA-γGlu-Trx-C20 diacid])-OH), in that order: 530 nM, 1.5 nM and 0.022 nM.

For the origin of these results see US10010614B2, “Derivatives of GLP-1 like peptides, and uses thereof” (Novo Nordisk A/S, priority 2013, dated 2018).
